Measurements as given in patent publication US20250263437A1, “POLYPEPTIDE FOR REPAIRING SKIN WOUND OR MUCOSAL INJURY, AND APPLICATION THEREOF” (Sichuan Gooddoctor Panxi Pharmaceutical Co., Ltd., priority 2021, published 2025).
Entries after “also recorded” stand apart in the source; their conditions may differ. Where no end group is shown, it is not given here.

Experiments:
[1] = test system: HaCaT cells; assay: Proliferation of HaCaT cells (CCK8); type: cell-based, human; settings: 0.2-0.8 μg/mL; 24 h, 48 h and 72 h; 1% serum
Procedure: Experimental method: Immortalized human keratinocytes (HaCaT cells) was adjusted to a concentration of 1.0×10^5 to 5.0×10^5/mL for passaging, and they were cultured at 37° C. and 5% CO2 for 24-36 h for biological activity detection. The cells were digested with 0.25% trypsin for 5 min, 1640 whole blood culture medium, the volume of which was not less than 1 time of the volume of the trypsin, was added to stop digestion, a cell suspension was collected, centrifuged at 1000 RPM for 3 min, the supernatant was discarded, 2 mL of 1640 whole blood culture medium was added to suspend the cells, 20 μL of the cell suspension was taken and stained with AOPI, the concentration of cells in the suspension was then detected by a cell counter, the suspension was prepared to a concentration of 5×10^4/mL with 1640 culture medium containing serum at a concentration of 10% and inoculated into a 96-well cell culture plate, with 100 μL per well, i.e., 5000 cells/well, and the plate was cultured at 37° C. and 5% CO2 overnight.
After 24 h, the original culture medium was discarded, and 100 μL of polypeptide compound solutions with different concentrations prepared with 1640 culture medium containing serum at a concentration of 1% were added, such that the final concentrations of the polypeptide compounds to be tested were 0.2, 0.4 and 0.8 ug/mL, respectively. In addition, an EGF control group was prepared by adding 100 μL of a recombinant human epidermal growth factor (EGF) solution prepared with 1640 culture medium containing serum at a concentration of 1%, with the final concentration being 100 ng/ml. In the model control group, an equal volume of 1640 culture medium containing serum at a concentration of 1% was added. After culturing at 37° C. and 5% CO2 for 24 h, 48 h and 72 h, the proliferation of the HaCaT cell line was detected by means of CCK8 kit.

[2] = test system: RSC96 cells; assay: Proliferation of RSC96 cells (CCK-8); type: cell-based; settings: 0.2, 0.4 and 0.8 ug/ml; 48 h; 0% serum
Procedure: Glial cells (RSC96 cells) were adjusted to a concentration of 1.0×10^5 to 5.0×10^5/mL for passaging and cultured at 37° C. and 5% CO2 for 24-36 h for biological activity detection. The cells were digested by trypsin, collected, prepared to a concentration of 5×10^4/mL with a serum-free medium, inoculated into a 96-well cell culture plate, with 100 μL per well, i.e., 5000 cells/well, and cultured overnight at 37° C. and 5% CO2. The polypeptide compound of the present invention was prepared to test concentrations (0.2 ug/ml, 0.4 ug/ml, and 0.8 ug/ml) with 0% serum culture medium as experimental groups, and an equal amount of 0% serum drug-free culture medium was added to the control group. They were added to 4 duplicate wells, and the resultants were incubated at 37° C. and 5% CO2 for 48 h. Detection of the proliferation of cells using CCK-8: the old culture medium was removed, and a serum-free medium containing 10% CCK-8 was added to each well. After incubation in an incubator for 2 h, the absorbance at 450 nm was measured by a microplate reader.

[3] = test system: ethanol-induced gastric ulcer model in mice; assay: Anti-ulcer effect on ethanol-induced gastric ulcer model in mice; type: in vivo; settings: single administration; ulcer inhibition rate of test compound / ulcer inhibition rate of Compound 1
Procedure: Experimental animals: Six-week old C57BL/6JGPt male mice, weighing about 20 g/mouse, were selected, with 10 mice in each group, from GemPharmatech (Chengdu) Co., Ltd., animal license number: SCXK (Chuan) 2020-034. After the experimental animals were divided into groups, they were dosed according to Table 5 one day before the experiment. Among the groups, the model group was given 200 μl of pure water, and the other dose groups were given 200 μl of drug solution. After that, all the animals were fasted for 24 h with free access to water. The next day, 1 h after administration, the mice in each group were given 9 μl/g of absolute ethanol by oral gavage for modeling. After 1 h, the animals were sacrificed by cervical dislocation, the gastric cardia was ligated, the pylorus was occluded, and the whole stomach was removed. 1 mL of 1% formaldehyde solution was injected into the gastric lumen via the glandular stomach, the cardia was ligated, and the stomach was taken out and immediately immersed in 1% formaldehyde solution. After soaking for 30 min, the stomach tissue was taken out and cut open along the greater curvature. The content of the stomach was rinsed off with normal saline, the injury of the gastric mucosa in the mice were observed and measured after being laid flat, and the ulcer index and ulcer inhibition rate were calculated; panoramic photos of the stomach were taken; and finally, the gastric tissue sample was immersed in formalin and fixed. Calculation method for ulcer index: If the length of cord-like injury was greater than 1 mm, the length thereof was measured, with 1 point per millimeter; if the width thereof was greater than 1 mm, the score thereof was doubled according to the number of millimeters of the width; and if the length was less than 1 mm, a score of 0.5 was given, and the scores were added up to obtain the ulcer index of the animal. Method of data statistics: the ulcer index was expressed as mean±standard deviation; the ulcer inhibition rate was calculated by using the median value and mean value of the ulcer index in each dosage group and simulation group; and the data were statistically analyzed by means of Excel, and the difference data of the gastric ulcer index were statistically analyzed by means of independent sample T test.

[4] = test system: HMEC-1 cells; assay: Proliferation of HMEC-1 cells (CCK-8); type: cell-based, Human; settings: 0.05, 0.2 and 0.8 ug/mL; 48 h; 0% serum
Procedure: Human microvascular endothelial cells (HMEC-1 cells) were cultured in 10% serum culture medium at 37° C. and 5% CO2, the medium was replaced every 1-2 d, and the cell concentration was controlled to be 4×10^6 cells/mL for passage. Cells were collected, prepared to […] with complete culture medium, inoculated into a 96-well cell culture plate, with 100 μL per well, i.e., 5000 cells/well, and cultured at 37° C. and 5% CO2 until the cells adhered to the wall. The polypeptide compound of the present invention was prepared to test concentrations (0.05 ug/mL, 0.2 ug/mL, and 0.8 ug/mL) with 0% serum culture medium as experimental groups, a positive drug (300 ng/ml) was prepared in the same way and added as a positive control, and an equal amount of 0% serum drug-free culture medium was added to the control group. They were added to 5 duplicate wells, and the resultants were incubated at 37° C. and 5% CO2 for 48 h. Detection of the proliferation of cells using CCK-8: the old culture medium was removed, and a serum-free medium containing 10% CCK-8 was added to each well. After incubation in an incubator for 2 h, the absorbance at 450 nm was measured by a microplate reader.

[5] = biological target: FGFR1 (Homo sapiens, UniProt P11362); assay: FGFR receptor binding assay: ultrafiltration/mass spectrometry affinity screening to FGFR1 protein target; settings: ratio of lower-layer to upper-layer compound MS signal intensity; the greater the ratio, the stronger the affinity
Chain of FGFR1 (P11362 22-822, species assumed): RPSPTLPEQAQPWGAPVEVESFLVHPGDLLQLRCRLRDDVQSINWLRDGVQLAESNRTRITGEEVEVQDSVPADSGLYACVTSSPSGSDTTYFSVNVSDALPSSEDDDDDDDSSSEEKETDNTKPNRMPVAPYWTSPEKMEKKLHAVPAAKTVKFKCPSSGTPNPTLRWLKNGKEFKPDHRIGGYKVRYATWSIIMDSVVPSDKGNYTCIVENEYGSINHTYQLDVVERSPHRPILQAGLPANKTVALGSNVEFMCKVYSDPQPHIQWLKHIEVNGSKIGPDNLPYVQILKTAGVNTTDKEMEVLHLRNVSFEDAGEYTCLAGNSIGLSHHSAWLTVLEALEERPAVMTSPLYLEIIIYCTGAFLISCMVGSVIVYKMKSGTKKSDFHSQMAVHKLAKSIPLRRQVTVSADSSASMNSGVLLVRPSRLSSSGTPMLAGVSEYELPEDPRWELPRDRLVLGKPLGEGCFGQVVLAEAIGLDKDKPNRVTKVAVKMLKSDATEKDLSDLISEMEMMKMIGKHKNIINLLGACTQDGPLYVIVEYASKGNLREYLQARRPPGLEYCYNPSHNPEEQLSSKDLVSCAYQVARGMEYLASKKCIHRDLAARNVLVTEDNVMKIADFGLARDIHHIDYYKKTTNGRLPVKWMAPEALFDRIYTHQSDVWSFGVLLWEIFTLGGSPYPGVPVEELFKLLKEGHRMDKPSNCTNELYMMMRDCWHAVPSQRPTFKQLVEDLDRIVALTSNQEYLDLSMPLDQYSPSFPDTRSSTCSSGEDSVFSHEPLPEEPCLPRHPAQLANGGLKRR
Procedure: The affinity of the polypeptide compound prepared by the present invention to FGFR1 was tested by using a control FGFR1 allosteric inhibitor (product number SSR128129E from Sigma) as a positive compound control.
Screening for the affinity to FGFR1 was as follows: FGFR1 solutions with an appropriate concentration were taken, the positive compound SSR128129E (Sigma) at an appropriate concentration and sample solutions of the inventive polypeptide compounds, as freeze-dried powders, dissolved in protein buffers were then respectively added. After incubation at room temperature for 50 min, ultrafiltration and screening were carried out to obtain various treated solutions. An appropriate volume of acetonitrile was added to each treated solution to precipitate a protein, the solution was then centrifuged, and the supernatant was taken and analyzed by mass spectrometry.
Affinity screening conditions: One-dimensional liquid-phase conditions were: chromatographic column; PolyLC chromatographic column, mobile phase A: KH2PO4, NaCl, pH 7.5, mobile phase B: acetonitrile, column temperature: 8° C., flow rate: 1 mL/min, and injection volume: appropriate; and two-dimensional liquid-phase conditions were: chromatographic column: BONUS RRHD, mobile phase A: 0.1% formic acid aqueous solution, mobile phase B: 0.1% formic acid in acetonitrile, column temperature: 60° C., flow rate: 0.3 mL/min, and injection volume: 40 uL. Gradient elution was used, i.e., 98% A (0-1 min), 98-10% A (1-6 min), 10% A (6-7.5 min), 10-98% A (7.5-8 min), and 98% A (8-9.5 min). Mass spectrometry conditions: Agilent 6530 Q-Tof, ESI ion source, voltage 3.5 KV, mass-to-charge ratio scanning range m/z=200-3000, acquisition mode: positive ion scanning, ion source temperature: 350° C., solvent removal temperature: 300° C., and nitrogen flow rate: 8 L/min.

VDAAVLMLRT [Compound 73]
effect on proliferation of HaCaT cells [1]: proliferation-promoting effect | effect on proliferation of RSC96 cells [2]: proliferation-promoting effect | Anti-ulcer activity (mean relative ulcer inhibition rate) [3]: 1.46 | effect on proliferation of HMEC-1 cells [4]: proliferation-promoting effect | Cb/Ct range [5]: 1.0-3

ETLQRKNKE [Compound 66]
effect on proliferation of HaCaT cells [1]: proliferation-promoting effect | effect on proliferation of RSC96 cells [2]: significant proliferation promoting effects | Anti-ulcer activity (mean relative ulcer inhibition rate) [3]: 0.52 | Cb/Ct range [5]: 1.0-3

AARLADELRAE [Compound 65]
effect on proliferation of HaCaT cells [1]: proliferation-promoting effect | effect on proliferation of RSC96 cells [2]: proliferation-promoting effect | Anti-ulcer activity (mean relative ulcer inhibition rate) [3]: 1.29 | Cb/Ct range [5]: 1.0-3

AAVLEKLE [Compound 69]
effect on proliferation of HaCaT cells [1]: proliferation-promoting effect | Anti-ulcer activity (mean relative ulcer inhibition rate) [3]: 1.25 | Cb/Ct range [5]: 1.0-3

EINQLELIKQASI [Compound 64]
effect on proliferation of HaCaT cells [1]: proliferation-promoting effect | effect on proliferation of RSC96 cells [2]: significant proliferation promoting effects | Anti-ulcer activity (mean relative ulcer inhibition rate) [3]: 0.61 | effect on proliferation of HMEC-1 cells [4]: proliferation-promoting effect | Cb/Ct range [5]: 1.0-3

KFYSQSTASSSYAYPSHFGPAGFSGSHS [Compound 70]
effect on proliferation of HaCaT cells [1]: proliferation-promoting effect | effect on proliferation of RSC96 cells [2]: inhibitory effect | Anti-ulcer activity (mean relative ulcer inhibition rate) [3]: 0.39 | Cb/Ct range [5]: 1.0-3

VDAAMVLLTR [Compound 72]
effect on proliferation of HaCaT cells [1]: proliferation-promoting effect | Anti-ulcer activity (mean relative ulcer inhibition rate) [3]: 1.65 | effect on proliferation of HMEC-1 cells [4]: significant proliferation promoting effects; also recorded: proliferation-promoting effect | Cb/Ct range [5]: 1.0-3

VDAAVIEKIE [Compound 71]
effect on proliferation of HaCaT cells [1]: proliferation-promoting effect | Anti-ulcer activity (mean relative ulcer inhibition rate) [3]: 0.77 | effect on proliferation of HMEC-1 cells [4]: proliferation-promoting effect | Cb/Ct range [5]: 1.0-3

FDALKQQFQAFQLE [Compound 62]
Anti-ulcer activity (mean relative ulcer inhibition rate) [3]: 0.89 | Cb/Ct range [5]: 1.0-3

HCLAGLKKDLEDLE [Compound 63]
effect on proliferation of HaCaT cells [1]: proliferation-promoting effects | effect on proliferation of RSC96 cells [2]: proliferation-promoting effect | Anti-ulcer activity (mean relative ulcer inhibition rate) [3]: 1.99 | Cb/Ct range [5]: 1.0-3
